Assay results: US20260020570A1, “HERBICIDAL COMBINATIONS AND A METHOD FOR CONTROLLING UNDESIRED VEGETATION” (UPL Mauritius Limited, priority 2022, published 2026)

System: Eleusine indica
Assay: Post-emergence herbicidal efficacy of L-glufosinate ammonium, additional herbicides and their combinations; expected efficacy by the Colby method
Format: in vivo
Description: The following products were used for testing the weed control efficacy of present herbicidal combinations.
Evaluation of Post-Emergence Herbicidal Activity:
Methodology: Trials were carried out to evaluate the efficacy of the combinations comprising L-glufosinate ammonium and the additional herbicides on Eleusine genus weeds.
All treatments were in 4 replications per treatment with a spray volume of about 150 L/ha.
Efficacy Evaluation: The expected efficacy of a combination comprising L-glufosinate ammonium and additional herbicides was calculated using the well-established Colby method.
In the Colby method, the expected (or predicted) response of a combination of herbicides is calculated by taking the product of the observed response for each individual component of the combination when applied alone, divided by 100, and subtracting this value from the sum of the observed response for each component when applied alone. An unexpected enhancement in efficacy of the combination is then determined by comparing the observed response of the combination to the expected (or predicted) response as calculated from the observed response of each individual component alone. […] The Colby method requires only a single dose of each herbicide applied alone and the mixture of both doses. The formula used to calculate the expected efficacy (EE) which was compared with the observed efficacy (OE) to determine the efficacy of the present disclosure is explained hereinbelow:
The expected efficacy for a combination of two active ingredients is as follows:
[formula] • wherein, • A=Observed efficacy of active ingredient A at the same concentration as used in the mixture. • B=Observed efficacy of the active ingredient B at the same concentration as used in the mixture.

SMILES: C[N+](C)(C)CCO.O=C([O-])COc1ccc(Cl)cc1Cl [2,4-D choline]
- Observed efficacy (%) of 2,4-D choline (228 g a.i./ha) (7 DAA, Table 18): 10%
- Observed efficacy (%) of 2,4-D choline (228 g a.i./ha) (14 DAA, Table 18): 10%
- Observed efficacy (%) of 2,4-D choline (228 g a.i./ha) (21 DAA, Table 18): 10%
- Observed efficacy (%) of 2,4-D choline (228 g a.i./ha) (28 DAA, Table 18): 5%

SMILES: COc1c(Cl)ccc(Cl)c1C(=O)O [Dicamba]
- Observed efficacy (%) of Dicamba (228 g a.i./ha) (28 DAA, Table 14): 5%

SMILES: Cc1ccc2c(c1)[C@H](Nc1nc(N)nc(C(C)F)n1)[C@@H](C)C2 (some centres unmarked) [Indaziflam]
- Observed efficacy (%) of Indaziflam (50 g a.i./ha) (7 DAA, Table 9): 60%
- Observed efficacy (%) of Indaziflam (50 g a.i./ha) (14 DAA, Table 9): 80%
- Observed efficacy (%) of Indaziflam (50 g a.i./ha) (21 DAA, Table 9): 85%
- Observed efficacy (%) of Indaziflam (50 g a.i./ha) (28 DAA, Table 9): 85%

SMILES: CS(=O)(=O)c1cc(C(F)(F)F)ccc1C(=O)c1cnoc1C1CC1 [Isoxaflutole]
- Observed efficacy (%) of Isoxaflutole (60 g a.i./ha) (7 DAA, Table 10): 40%
- Observed efficacy (%) of Isoxaflutole (60 g a.i./ha) (14 DAA, Table 10): 75%
- Observed efficacy (%) of Isoxaflutole (60 g a.i./ha) (21 DAA, Table 10): 85%

SMILES: CP(=O)(O)CC[C@H](N)C(=O)O.N [L-glufosinate ammonium]
- Observed efficacy (%) of L-glufosinate ammonium (150 g a.i./ha) (3 DAA, Table 15): 40%
- Observed efficacy (%) of L-glufosinate ammonium (150 g a.i./ha) (7 DAA, Table 8): 35%
- Observed efficacy (%) of L-glufosinate ammonium (150 g a.i./ha) (7 DAA, Table 9): 35%
- Observed efficacy (%) of L-glufosinate ammonium (150 g a.i./ha) (7 DAA, Table 10): 35%
- Observed efficacy (%) of L-glufosinate ammonium (150 g a.i./ha) (7 DAA, Table 11): 35%
- Observed efficacy (%) of L-glufosinate ammonium (150 g a.i./ha) (7 DAA, Table 12): 40%
- Observed efficacy (%) of L-glufosinate ammonium (150 g a.i./ha) (7 DAA, Table 13): 35%
- Observed efficacy (%) of L-glufosinate ammonium (150 g a.i./ha) (7 DAA, Table 15): 50%
- Observed efficacy (%) of L-glufosinate ammonium (150 g a.i./ha) (7 DAA, Table 18): 70%
- Observed efficacy (%) of L-glufosinate ammonium (150 g a.i./ha) (14 DAA, Table 8): 25%
- Observed efficacy (%) of L-glufosinate ammonium (150 g a.i./ha) (14 DAA, Table 9): 25%
- Observed efficacy (%) of L-glufosinate ammonium (150 g a.i./ha) (14 DAA, Table 10): 25%
- Observed efficacy (%) of L-glufosinate ammonium (150 g a.i./ha) (14 DAA, Table 11): 30%
- Observed efficacy (%) of L-glufosinate ammonium (150 g a.i./ha) (14 DAA, Table 12): 30%
- Observed efficacy (%) of L-glufosinate ammonium (150 g a.i./ha) (14 DAA, Table 13): 30%
- Observed efficacy (%) of L-glufosinate ammonium (150 g a.i./ha) (14 DAA, Table 15): 40%
- Observed efficacy (%) of L-glufosinate ammonium (150 g a.i./ha) (14 DAA, Table 18): 65%
- Observed efficacy (%) of L-glufosinate ammonium (150 g a.i./ha) (21 DAA, Table 8): 20%
- Observed efficacy (%) of L-glufosinate ammonium (150 g a.i./ha) (21 DAA, Table 9): 15%
- Observed efficacy (%) of L-glufosinate ammonium (150 g a.i./ha) (21 DAA, Table 10): 20%
- Observed efficacy (%) of L-glufosinate ammonium (150 g a.i./ha) (21 DAA, Table 12): 20%
- Observed efficacy (%) of L-glufosinate ammonium (150 g a.i./ha) (21 DAA, Table 15): 38%
- Observed efficacy (%) of L-glufosinate ammonium (150 g a.i./ha) (21 DAA, Table 16): 35%
- Observed efficacy (%) of L-glufosinate ammonium (150 g a.i./ha) (21 DAA, Table 17): 25%
- Observed efficacy (%) of L-glufosinate ammonium (150 g a.i./ha) (21 DAA, Table 18): 60%
- Observed efficacy (%) of L-glufosinate ammonium (150 g a.i./ha) (28 DAA, Table 8): 10%
- Observed efficacy (%) of L-glufosinate ammonium (150 g a.i./ha) (28 DAA, Table 9): 5%
- Observed efficacy (%) of L-glufosinate ammonium (150 g a.i./ha) (28 DAA, Table 12): 10%
- Observed efficacy (%) of L-glufosinate ammonium (150 g a.i./ha) (28 DAA, Table 14): 40%
- Observed efficacy (%) of L-glufosinate ammonium (150 g a.i./ha) (28 DAA, Table 15): 30%
- Observed efficacy (%) of L-glufosinate ammonium (150 g a.i./ha) (28 DAA, Table 17): 20%
- Observed efficacy (%) of L-glufosinate ammonium (150 g a.i./ha) (28 DAA, Table 18): 50%
- Observed efficacy (%) of L-glufosinate ammonium (150 g a.i./ha) (35 DAA, Table 15): 20%
- Observed efficacy (%) of L-glufosinate ammonium (150 g a.i./ha) (35 DAA, Table 17): 18%

SMILES: CCc1cccc(C)c1N(COC(C)C)C(=O)CCl [Propisochlor]
- Observed efficacy (%) of Propisochlor (540 g a.i./ha) (7 DAA, Table 13): 0%
- Observed efficacy (%) of Propisochlor (540 g a.i./ha) (14 DAA, Table 13): 0%

SMILES: Cn1nc(C(F)(F)F)c(CS(=O)(=O)C2=NOC(C)(C)C2)c1OC(F)F [Pyroxasulfone]
- Observed efficacy (%) of Pyroxasulfone (75 g a.i./ha) (7 DAA, Table 11): 5%
- Observed efficacy (%) of Pyroxasulfone (75 g a.i./ha) (14 DAA, Table 11): 30%

SMILES: CCc1cccc(C)c1N(C(=O)CCl)[C@@H](C)COC [S-metolachlor]
- Observed efficacy (%) of S-metolachlor (960 g a.i./ha) (7 DAA, Table 8): 5%
- Observed efficacy (%) of S-metolachlor (960 g a.i./ha) (14 DAA, Table 8): 40%
- Observed efficacy (%) of S-metolachlor (960 g a.i./ha) (21 DAA, Table 8): 40%
- Observed efficacy (%) of S-metolachlor (960 g a.i./ha) (28 DAA, Table 8): 65%

SMILES: CCN(CC)C(=O)C(C)Oc1cccc2ccccc12 (centres unmarked) [napropamide, Napropamide]
- Observed efficacy (%) of napropamide (675 g a.i./ha) (7 DAA, Table 12): 5%
- Observed efficacy (%) of napropamide (675 g a.i./ha) (14 DAA, Table 12): 5%
- Observed efficacy (%) of napropamide (675 g a.i./ha) (21 DAA, Table 12): 5%
- Observed efficacy (%) of napropamide (675 g a.i./ha) (28 DAA, Table 12): 5%

SMILES: CCOC(=O)C(C)Oc1ccc(Oc2cnc3cc(Cl)ccc3n2)cc1 (centres unmarked) [quizalofop-ethyl, Quizalofop-ethyl]
- Observed efficacy (%) of quizalofop-ethyl (25 g a.i./ha) (21 DAA, Table 16): 95%

SMILES: C[C@@H](Oc1ccc(Oc2cnc3cc(Cl)ccc3n2)cc1)C(=O)OCC1CCCO1 (some centres unmarked) [quizalofop-p-tefuryl, Quizalofop-p-tefuryl]
- Observed efficacy (%) of quizalofop-p-tefuryl (25 g a.i./ha) (21 DAA, Table 17): 10%
- Observed efficacy (%) of quizalofop-p-tefuryl (25 g a.i./ha) (28 DAA, Table 17): 5%
- Observed efficacy (%) of quizalofop-p-tefuryl (25 g a.i./ha) (35 DAA, Table 17): 5%

SMILES: CS(=O)(=O)c1ccc(C(=O)C2C(=O)CCCC2=O)c(Cl)c1COCC(F)(F)F [tembotrione, Tembotrione]
- Observed efficacy (%) of tembotrione (53 g a.i./ha) (3 DAA, Table 15): 5%
- Observed efficacy (%) of tembotrione (53 g a.i./ha) (7 DAA, Table 15): 15%
- Observed efficacy (%) of tembotrione (53 g a.i./ha) (14 DAA, Table 15): 40%
- Observed efficacy (%) of tembotrione (53 g a.i./ha) (21 DAA, Table 15): 38%
- Observed efficacy (%) of tembotrione (53 g a.i./ha) (28 DAA, Table 15): 35%
- Observed efficacy (%) of tembotrione (53 g a.i./ha) (35 DAA, Table 15): 30%
